Converted amounts (≈) assume the structure as drawn.

Test system in the first data set: not given
Assay: not given
Conditions: not given
As to `O=C(NCCC1CCOCC1)c1nc2cc(C(F)(F)F)cc([N+](=O)[O-])c2s1` [Compound 2, 7-nitro-N-[2-(tetrahydro-2H-pyran-4-yl)ethyl]-5-(trifluoromethyl)-1,3-benzothiazole-2-carboxamide], the melting point is 154 °C. Same read-out and setting: the result for `O=C(NCCc1ccc(Cl)cc1)c1nc2cc(C(F)(F)F)cc([N+](=O)[O-])c2s1` reads 140 °C.

The subject of the next data set is Mycobacterium tuberculosis H37Rv strain. The data set can be described thus: Alamar blue (MABA) test, MIC on Mycobacterium tuberculosis H37Rv. It is filed as cell-based. The settings on record: H37RV, read-out: fluorimetric MIC (minimum inhibitory concentration) with respect to the growth of Mycobacterium tuberculosis.
For the molecule `O=C(NCCc1ccccc1O)c1nc2cc(C(F)(F)F)cc([N+](=O)[O-])c2s1` [Compound 17, N-[2-(2-hydroxyphenyl)ethyl]-7-nitro-5-(trifluoromethyl)-1,3-benzothiazole-2-carboxamide], the MIC is less than 0.5 µM. Same read-out and setting: then `O=C(NCCc1nc2ccccc2o1)c1nc2cc(C(F)(F)F)cc([N+](=O)[O-])c2s1` [Compound 38, N-[2-(1,3-benzoxazol-2-yl)ethyl]-7-nitro-5-(trifluoromethyl)-1,3-benzothiazole-2-carboxamide], with less than 0.5 µM.

On to `O=C(NCCc1ccc(O)cc1)c1nc2cc(C(F)(F)F)cc([N+](=O)[O-])c2s1` [Compound 18, N-[2-(4-hydroxyphenyl)ethyl]-7-nitro-5-(trifluoromethyl)-1,3-benzothiazole-2-carboxamide], for which the MIC is less than 0.5 µM.

Turning to `O=C(NCCc1cccc(Cl)c1)c1nc2cc(C(F)(F)F)cc([N+](=O)[O-])c2s1` [Compound 16, N-[2-(3-chlorophenyl)-ethyl]-7-nitro-5-(trifluoromethyl)-1,3-benzothiazole-2-carboxamide], the MIC was less than 0.5 µM.

Still in this data set, the particulars now being: in vitro, Alamar blue (MABA), H37Rv strain, fluorescence reading, read-out: fluorimetric MIC (minimum inhibitory concentration) with respect to the growth of Mycobacterium tuberculosis.
As to `O=C(NCCN1CCc2ccccc2C1)c1nc2cc(C(F)(F)F)cc([N+](=O)[O-])c2s1` [Compound 9, N-[2-(1,2,3,4-tetrahydroisoquinolin-2(1H)-yl)ethyl]-7-nitro-5-(trifluoromethyl)-1,3-benzothiazole-2-carboxamide], the MIC was less than 0.5 µM. On the same count and under the same terms, then `O=C(NCCC1CCOCC1)c1nc2cc(C(F)(F)F)cc([N+](=O)[O-])c2s1` [Compound 2, 7-nitro-N-[2-(tetrahydro-2H-pyran-4-yl)ethyl]-5-(trifluoromethyl)-1,3-benzothiazole-2-carboxamide], with less than 0.5 µM; and `COc1ccc(CCNC(=O)c2nc3cc(C(F)(F)F)cc([N+](=O)[O-])c3s2)cc1` [Compound 7, N-[2-(4-methoxyphenyl)ethyl]-7-nitro-5-(trifluoromethyl)-1,3-benzothiazole-2-carboxamide], with less than 0.5 µM; and `CO[C@H]1/C=C/O[C@@]2(C)Oc3c(C)c(O)c4c(O)c(c(/C=N/N5CCN(C)CC5)c(O)c4c3C2=O)NC(=O)/C(C)=C\C=C\[C@H](C)[C@H](O)[C@@H](C)[C@@H](O)[C@@H](C)[C@H](OC(C)=O)[C@@H]1C` [rifampicin, reference compound], with 0.12 µM (≈ 0.0988 µg/mL). Same read-out and setting: the result for `Cc1nc(CCNC(=O)c2nc3cc(C(F)(F)F)cc([N+](=O)[O-])c3s2)sc1Cl` [Compound 36, N-[2-(5-chloro-4-methyl-1,3-thiazol-2-yl)ethyl]-7-nitro-5-(trifluoromethyl)-1,3-benzothiazole-2-carboxamide] reads less than 0.5 µM; that for `COc1ccc(CCNC(=O)c2nc3cc(C(F)(F)F)cc([N+](=O)[O-])c3s2)cc1OC` [Compound 15, N-[2-(3,4-dimethoxyphenyl)ethyl]-7-nitro-5-(trifluoromethyl)-1,3-benzothiazole-2-carboxamide], less than 0.5 µM; that for `CC1(C)CC(CCNC(=O)c2nc3cc(C(F)(F)F)cc([N+](=O)[O-])c3s2)(c2ccccc2)CCO1` (stereo not drawn) [Compound 27, N-[2-(2,2-dimethyl-4-phenyltetrahydro-2H-pyran-4-yl)ethyl]-7-nitro-5-(trifluoromethyl)-1,3-benzothiazole-2-carboxamide], less than 0.5 µM. In the case of `O=C(NCCNc1ccccn1)c1nc2cc(C(F)(F)F)cc([N+](=O)[O-])c2s1` [Compound 21, 7-nitro-N-[2-(pyridin-2-ylamino)ethyl]-5-(trifluoromethyl)-1,3-benzothiazole-2-carboxamide], the MIC is less than 0.5 µM. Turning to `Cc1nc(CCNC(=O)c2nc3cc(C(F)(F)F)cc([N+](=O)[O-])c3s2)sc1C` [Compound 40, N-[2-(4,5-dimethyl-1,3-thiazol-2-yl)ethyl]-7-nitro-5-(trifluoromethyl)-1,3-benzothiazole-2-carboxamide], the MIC is less than 0.5 µM. Same read-out and setting: then `Cc1cccnc1CCNC(=O)c1nc2cc(C(F)(F)F)cc([N+](=O)[O-])c2s1` [Compound 25, N-[2-(3-methylpyridin-2-yl)ethyl]-7-nitro-5-(trifluoromethyl)-1,3-benzothiazole-2-carboxamide], with less than 0.5 µM; and `O=C(NCC(c1ccccc1)N1CCOCC1)c1nc2cc(C(F)(F)F)cc([N+](=O)[O-])c2s1` (stereo not drawn) [Compound 26, N-(2-morpholin-4-yl-2-phenylethyl)-7-nitro-5-(trifluoromethyl)-1,3-benzothiazole-2-carboxamide], with less than 0.5 µM. On the same count and under the same terms, the result for `NNC(=O)c1ccncc1` [isoniazid, reference compound] reads 0.36 µM (≈ 0.0494 µg/mL); that for `O=C(NCCN1CCSCC1)c1nc2cc(C(F)(F)F)cc([N+](=O)[O-])c2s1` [Compound 22, 7-nitro-N-[2-thiomorpholin-4-ylethyl)-5-(trifluoromethyl)-1,3-benzothiazole-2-carboxamide], less than 0.5 µM; that for `CCc1csc(CCNC(=O)c2nc3cc(C(F)(F)F)cc([N+](=O)[O-])c3s2)n1` [Compound 39, N-[2-(4-ethyl-1,3-thiazol-2-yl)ethyl]-7-nitro-5-(trifluoromethyl)-1,3-benzothiazole-2-carboxamide], less than 0.5 µM. Regarding `O=C(NCCc1ccc(F)cc1)c1nc2cc(C(F)(F)F)cc([N+](=O)[O-])c2s1` [Compound 14, N-[2-(4-fluorophenyl)ethyl]-7-nitro-5-(trifluoromethyl)-1,3-benzothiazole-2-carboxamide], the MIC is less than 0.5 µM.

As a reminder, the melting point is the temperature, or range, at which the solid turns liquid.
